# Measured values: article PMC4129108, “The natural triterpene 3β,6β,16β-trihydroxy-lup-20(29)-ene obtained from the flowers of Combretum leprosum induces apoptosis in MCF-7 breast cancer cells” (BMC Complementary and Alternative Medicine, 2014)
# How the values were obtained:
# [1] = test system: MCF-7 (breast adenocarcinoma); assay: XTT cell viability assay, MCF-7; type: cell-based, human; details: for IC50: XTT
# Procedure: The human cell lines MCF-7 (breast adenocarcinoma), HepG2 (hepatoma), T24 (bladder cancer), CACO-2 (colorectal adenocarcinoma) and MRC5 (lung normal fibroblast) were obtained from the Rio de Janeiro Cell Bank (Rio de Janeiro, RJ, Brazil). The HCT116 cell (colorectal carcinoma), and HT29 cell (colorectal adenocarcinoma) were kindly provided by Dr. Annette K. Larsen (Institut National de la Santé et de la Recherche Médicale - INSERM, Paris, França). All cell lines except MCF-7 were grown in DMEM supplemented with 10% or 20% (for CACO-2) FBS, 100 units.mL^-1 penicillin and 100 μg.mL^-1 streptomycin at 37°C in a humidified atmosphere of 5% CO2. MCF-7 cells were maintained in RPMI-1640 supplemented with 20% FBS at the same conditions described above.
# The cytotoxic potential of the TTHL was evaluated by the XTT assay in human tumor cell lines as well as in MRC5 normal fibroblasts. Cells (1 × 10^4 cells) were seeded on 96-well plates in growth medium and incubated overnight. Afterwards, TTHL (0.5, 1.0, 2.5, 5.0, and 10 μg/mL) was added to each well and incubated for 24, 48, 72, and 120 h. Mitoxantrone, a cytostatic anthracenedione that intercalates in DNA and increases the incidence of double-strand breaks by stabilizing the cleavable complex of topoisomerase II and DNA, was used as positive control. At the end of each treatment, cell viability was assessed according to the manufacturer’s instructions. Briefly, after discarding the medium, 1 mL of XTT labeling mixture was added to the cells and incubated for 2 h at 37°C. Absorbance was measured with a SpectraMax reader (Bio-Rad, USA) at a test wavelength of 492 nm (A492) and a reference wavelength of 690 nm (A690). The final result corresponds to A492-A690. The absorbance of negative control cells was set as 100% viability, and the values for treated cells were calculated as a percentage of the control.
# The IC20, IC50, and IC80 values and their 95% confidence intervals (CI 95%) were obtained by nonlinear regression using GraphPad Prism v5 program (Intuitive Software for Science, San Diego, CA, USA). Selective index (SI) was calculated by IC50 in MRC5 cells/IC50 in tumoral cells. All experiments were independently repeated at least three times, with triplicate samples for each treatment. Results are expressed as means ± standard deviation (SD). Data were analyzed by one-way analysis of variance (ANOVA), and means were compared using Tukey test, with P ≤ 0.05 considered as statistically significant.
# MCF-7 cells = assay: Alkaline comet assay; type: cell-based, human; details: MCF-7, 24 h
# Procedure: Cells (2 × 10^5 cells/mL) were seeded on 6-well tissue culture plates, and grown for 1 day up to 70–80% confluence before treatment with the test substance. The TTHL was added to medium with FBS to obtain the different concentrations, and cells were treated at 37°C for 24 h in humidified atmosphere containing 5% CO2.
# The alkaline comet assay was performed as previously described. Briefly, 10 μL of cell suspension (1 × 10^4 cells) treated with TTHL were mixed with 90 μL LMP agarose, spread on a normal agarose precoated microscope slide, and placed at 4°C for 5 min to allow for solidification. Cells were lysed in high concentration of salt and detergent (2.5 M NaCl, 100 mM Na2EDTA, 10 mM Tris with 1% Triton X-100 and 10% DMSO freshly added) for 2 h. Slides were removed from lysing solution and washed three times with PBS. Subsequently, cells were exposed to alkali conditions (300 mM NaOH/1 mM Na2EDTA, pH >13, 30 min, 4°C) to allow DNA unwinding and expression of alkali-labile sites. Electrophoresis was conducted for 25 min at 25 V and 300 mA ([…]). After electrophoresis, the slides were neutralized and silver stained. One hundred cells were scored visually according to the tail length and the amount of DNA present in the tail. Each comet was given an arbitrary value of 0–4 (0, undamaged; 4, maximally damaged), as described by Collins et al.. Damage score was thus assigned to each sample and can range from 0 (completely undamaged: 100 cells × 0) to 400 (with maximum damage: 100 cells × 4). International guidelines and recommendations for the comet assay consider that visual scoring of comets is a well-validated evaluation method, as it is highly correlated with computer-based image analysis.
# [2] = test system: S. cerevisiae EG103 (SOD-WT); assay: Yeast survival assay, EG103 (SOD-WT); type: cell-based, Saccharomyces cerevisiae; details: STAT cells, 1 h in PBS 30°C
# Procedure: Media, solutions and buffers were prepared according to Burke et al.. YPD medium (0.5% yeast extract, 2% peptone, 2% glucose) was used for routine growth. Synthetic medium SC (0.67% yeast nitrogen base, 0.1% ammonium sulfate, 2% glucose) supplemented with the appropriate amino acids and bases ([…]) was used for the detection of mutations.
# Stationary phase (STAT) cultures were obtained by inoculation of a single colony into liquid YPD. We chose to work in the stationary phase of growth because this resembles most cells of multicellular organisms in important aspects: (i) most energy comes from mitochondrial respiration; (ii) the cells have left the active cell cycle and have entered the Go phase; and (iii) damage accumulates over time.
# STAT cells (1 × 10^8 cells/mL) were exposed to TTHL (10–500 μg/mL) and incubated under growth conditions for 1 h in PBS at 30°C. Cells were then washed and treated with H2O2 (5 mM) in PBS for another hour. Suitable aliquots were plated in triplicate on solid YPD (2–3 days, 30°C) and colony-forming units were counted. Sensitivity was expressed as a percentage of survival in relation to the negative control (solvent).
compound,measurement,setting,value
"C=C(C)[C@@H]1CC[C@@]2(C)[C@H]1[C@H]1CC[C@@H]3[C@@]4(C)CC[C@H](O)C(C)(C)[C@@H]4[C@H](O)C[C@@]3(C)[C@]1(C)C[C@@H]2O [TTHL, 3β,6β,16β-trihydroxy-lup-20(29)-ene]",IC20,"[1]; Homo sapiens, MCF7, MCF-7, 24 h, determined by XTT assay, read-out: IC20 (20% inhibitory concentration)",0.5 µg/mL
same,IC80,"[1]; Homo sapiens, MCF7, MCF-7, 24 h, determined by XTT assay, read-out: IC80 (80% inhibitory concentration)",3.7 µg/mL
same,IC50,"[1]; Homo sapiens, MCF7, MCF-7, 24 h treatment",1.36 ± 0.05 µg/mL
same,IC50,"[1]; Homo sapiens, MCF7, MCF-7, 48 h treatment",0.73 ± 0.05 µg/mL
same,IC50,"[1]; Homo sapiens, MCF7, MCF-7, 72 h treatment",0.63 ± 0.04 µg/mL
same,IC50,"[1]; Homo sapiens, MCF7, MCF-7, 120 h treatment",0.3 ± 0.04 µg/mL
same,Selectivity index (SI),"[1]; IC50 in MRC5 cells/IC50 in MCF-7, 48 h",10 X
same,Selectivity index (SI),"[1]; IC50 in MRC5 cells/IC50 in MCF-7, 72 h",12 X
same,Selectivity index (SI),"[1]; IC50 in MRC5 cells/IC50 in MCF-7, 120 h",23 X
same,DNA damage (alkaline comet assay),MCF-7 cells; TTHL at IC20,does not generate DNA-strand breaks
same,DNA damage (alkaline comet assay),MCF-7 cells; TTHL at IC50,induces signifcant DNA damage
same,DNA damage (alkaline comet assay),MCF-7 cells; TTHL at IC80,induces signifcant DNA damage
same,survival (percentage in relation to negative control),[2]; TTHL 10 μg/mL,100 ± 2.83%
same,survival (percentage in relation to negative control),[2]; TTHL 50 μg/mL,87.65 ± 5.16 %
same,survival (percentage in relation to negative control),[2]; TTHL 100 μg/mL,79.45 ± 1.91 %
same,survival (percentage in relation to negative control),[2]; TTHL 500 μg/mL,67.65 ± 3.04 %
